Experimental data: patent US9963442B2, “Pyridones as herbicides” (E I DU PONT DE NEMOURS AND COMPANY, priority 2014, dated 2018)

What was measured:
Type in all cases: in vivo
[1] = test system: wheat (Triticum aestivum); test: Test A postemergence application; conditions: approx. 10 days
Excerpt: (§1) Seeds of plant species selected from barnyardgrass (Echinochloa crus-galli), kochia (Kochia scoparia), ragweed (common ragweed, Ambrosia elatior), Italian ryegrass (Lolium multiflorum), giant foxtail (Setaria faberii), and pigweed (Amaranthus retroflexus) were planted into a blend of loam soil and sand and treated preemergence with a directed soil spray using test chemicals formulated in a non-phytotoxic solvent mixture which included a surfactant. At the same time, plants selected from these weed species and also wheat (Triticum aestivum), corn (Zea mays), blackgrass (Alopecurus myosuroides), and galium (catchweed bedstraw, Galium aparine) were planted in pots containing the same blend of loam soil and sand and treated with postemergence applications of test chemicals formulated in the same manner. Plants ranged in height from 2 to 10 cm and were in the one- to two-leaf stage for the postemergence treatment. Treated plants and untreated controls were maintained in a greenhouse for approximately 10 days, after which time all treated plants were compared to untreated controls and visually evaluated for injury. Plant response ratings, summarized in Table A, are based on a 0 to 100 scale where 0 is no effect and 100 is complete control. A dash (-) response means no test result.

[2] = test system: galium (catchweed bedstraw, Galium aparine); test: Test A postemergence application; conditions: approx. 10 days
Excerpt: as §1

kochia (Kochia scoparia) [3] = test: Test A postemergence application; conditions: approx. 10 days
Excerpt: as §1

[4] = test system: blackgrass (Alopecurus myosuroides); test: Test A postemergence application; conditions: approx. 10 days
Excerpt: as §1

corn (Zea mays) [5] = test: Test A postemergence application; conditions: approx. 10 days
Excerpt: as §1

[6] = test system: giant foxtail (Setaria faberii); test: Test A postemergence application; conditions: approx. 10 days
Excerpt: as §1

[7] = test system: barnyardgrass (Echinochloa crus-galli); test: Test A postemergence application; conditions: approx. 10 days
Excerpt: as §1

[8] = test system: Italian ryegrass (Lolium multiflorum); test: Test A postemergence application; conditions: approx. 10 days
Excerpt: as §1

[9] = test system: ragweed (common ragweed, Ambrosia elatior); test: Test A postemergence application; conditions: approx. 10 days
Excerpt: as §1

[10] = test system: pigweed (Amaranthus retroflexus); test: Test A postemergence application; conditions: approx. 10 days
Excerpt: as §1

soybean (Glycine max) = test: Test C preemergence; conditions: scale 0 to 100, 0 is no effect, 100 is complete control
Excerpt: (§2) Seeds of plant species selected from blackgrass (Alopecurus myosuroides), Italian ryegrass (Lolium multiflorum), winter wheat (Triticum aestivum), galium (catchweed bedstraw, Galium aparine), corn (Zea mays), large (Lg) crabgrass (Digitaria sanguinalis), giant foxtail (Setaria faberii), johnsongrass (Sorghum halepense), lambsquarters (Chenopodium album), morningglory (Ipomoea coccinea), yellow nutsedge (Cyperus esculentus), pigweed (Amaranthus retroflexus), ragweed (common ragweed, Ambrosia elatior), soybean (Glycine max), barnyardgrass (Echinochloa crus-galli), oilseed rape (Brassica napus), waterhemp (common waterhemp, Amaranthus rudis), and velvetleaf (Abutilon theophrasti) were planted into a blend of loam soil and sand and treated preemergence with test chemicals formulated in a non-phytotoxic solvent mixture which included a surfactant. At the same time, plants selected from these crop and weed species and also chickweed (common chickweed, Stellaria media), kochia (Kochia scoparia), and wild oat (Avena fatua), were planted in pots containing Sunshine Redi-Earth® planting medium comprising spaghnum peat moss, vermiculite, starter nutrients and dolomitic limestone and treated with postemergence applications of test chemicals formulated in the same manner. Plants ranged in height from 2 to 18 cm (1- to 4-leaf stage) for postemergence treatments. Treated plants and controls were maintained in a greenhouse for 13 to 15 days, after which time all species were compared to controls and visually evaluated. Plant response ratings, summarized in Table C, are based on a scale of 0 to 100 where 0 is no effect and 100 is complete control. A dash (-) response means no test result.

[11] = test system: johnsongrass (Sorghum halepense); test: Test C preemergence; conditions: scale 0 to 100, 0 is no effect, 100 is complete control
Excerpt: as §2

[12] = test system: galium (catchweed bedstraw, Galium aparine); test: Test C postemergence; conditions: scale 0 to 100, 0 is no effect, 100 is complete control
Excerpt: as §2

[13] = test system: velvetleaf (Abutilon theophrasti); test: Test C postemergence; conditions: scale 0 to 100, 0 is no effect, 100 is complete control
Excerpt: as §2

corn (Zea mays) [14] = test: Test C postemergence; conditions: scale 0 to 100, 0 is no effect, 100 is complete control
Excerpt: as §2

[15] = test system: waterhemp (common waterhemp, Amaranthus rudis); test: Test C postemergence; conditions: scale 0 to 100, 0 is no effect, 100 is complete control
Excerpt: as §2

[16] = test system: Italian ryegrass (Lolium multiflorum); test: Test C postemergence; conditions: scale 0 to 100, 0 is no effect, 100 is complete control
Excerpt: as §2

[17] = test system: large (Lg) crabgrass (Digitaria sanguinalis); test: Test C postemergence; conditions: scale 0 to 100, 0 is no effect, 100 is complete control
Excerpt: as §2

kochia (Kochia scoparia) [18] = test: Test A preemergence, directed soil spray; conditions: approx. 10 days
Excerpt: as §1

[19] = test system: giant foxtail (Setaria faberii); test: Test A preemergence, directed soil spray; conditions: approx. 10 days
Excerpt: as §1

[20] = test system: barnyardgrass (Echinochloa crus-galli); test: Test A preemergence, directed soil spray; conditions: approx. 10 days
Excerpt: as §1

[21] = test system: Italian ryegrass (Lolium multiflorum); test: Test A preemergence, directed soil spray; conditions: approx. 10 days
Excerpt: as §1

[22] = test system: ragweed (common ragweed, Ambrosia elatior); test: Test A preemergence, directed soil spray; conditions: approx. 10 days
Excerpt: as §1

[23] = test system: pigweed (Amaranthus retroflexus); test: Test A preemergence, directed soil spray; conditions: approx. 10 days
Excerpt: as §1

O=c1cccc(Oc2ncc(Cl)cn2)n1-c1ncc(Cl)cn1 [Compound 6]
5: Plant response rating, Johnsongrass ([11]; 62 g ai/ha) | Plant response rating, Corn (corn (Zea mays) [14]; 16 g ai/ha) | Plant response rating, Crabgrass, Large ([17]; 16 g ai/ha) | Plant response rating, Crabgrass, Large ([17]; 62 g ai/ha)
20: Plant response rating (0 to 100 scale, 0 no effect, 100 complete control), Corn (corn (Zea mays) [5]; 125 g ai/ha) | Plant response rating (0 to 100 scale, 0 no effect, 100 complete control), Ryegrass, Italian ([8]; 125 g ai/ha) | Plant response rating, Soybean (soybean (Glycine max); 31 g ai/ha) | Plant response rating, Corn (corn (Zea mays) [14]; 125 g ai/ha) | Plant response rating, Crabgrass, Large ([17]; 125 g ai/ha) | Plant response rating (0 to 100 scale, 0 no effect, 100 complete control), Barnyardgrass ([20]; 31 g ai/ha)
100: Plant response rating (0 to 100 scale, 0 no effect, 100 complete control), Kochia (kochia (Kochia scoparia) [18]; 125 g ai/ha) | Plant response rating (0 to 100 scale, 0 no effect, 100 complete control), Foxtail, Giant ([19]; 125 g ai/ha) | Plant response rating (0 to 100 scale, 0 no effect, 100 complete control), Pigweed ([23]; 125 g ai/ha)
90: Plant response rating (0 to 100 scale, 0 no effect, 100 complete control), Galium ([2]; 125 g ai/ha) | Plant response rating (0 to 100 scale, 0 no effect, 100 complete control), Kochia (kochia (Kochia scoparia) [3]; 125 g ai/ha) | Plant response rating (0 to 100 scale, 0 no effect, 100 complete control), Pigweed ([10]; 125 g ai/ha)
80: Plant response rating (0 to 100 scale, 0 no effect, 100 complete control), Kochia (kochia (Kochia scoparia) [3]; 31 g ai/ha) | Plant response rating (0 to 100 scale, 0 no effect, 100 complete control), Pigweed ([10]; 31 g ai/ha) | Plant response rating, Galium ([12]; 125 g ai/ha) | Plant response rating (0 to 100 scale, 0 no effect, 100 complete control), Ragweed ([22]; 125 g ai/ha) | Plant response rating (0 to 100 scale, 0 no effect, 100 complete control), Pigweed ([23]; 31 g ai/ha)
65: Plant response rating, Velvetleaf ([13]; 31 g ai/ha)
10: Plant response rating (0 to 100 scale, 0 no effect, 100 complete control), Blackgrass ([4]; 31 g ai/ha) | Plant response rating (0 to 100 scale, 0 no effect, 100 complete control), Foxtail, Giant ([6]; 31 g ai/ha) | Plant response rating (0 to 100 scale, 0 no effect, 100 complete control), Barnyardgrass ([7]; 31 g ai/ha) | Plant response rating, Soybean (soybean (Glycine max); 16 g ai/ha) | Plant response rating, Johnsongrass ([11]; 125 g ai/ha) | Plant response rating, Corn (corn (Zea mays) [14]; 31 g ai/ha) | Plant response rating, Corn (corn (Zea mays) [14]; 62 g ai/ha) | Plant response rating (0 to 100 scale, 0 no effect, 100 complete control), Ryegrass, Italian ([21]; 125 g ai/ha)
60: Plant response rating (0 to 100 scale, 0 no effect, 100 complete control), Galium ([2]; 31 g ai/ha) | Plant response rating (0 to 100 scale, 0 no effect, 100 complete control), Foxtail, Giant ([6]; 125 g ai/ha) | Plant response rating, Galium ([12]; 31 g ai/ha) | Plant response rating, Galium ([12]; 62 g ai/ha) | Plant response rating, Waterhemp ([15]; 16 g ai/ha) | Plant response rating (0 to 100 scale, 0 no effect, 100 complete control), Kochia (kochia (Kochia scoparia) [18]; 31 g ai/ha) | Plant response rating (0 to 100 scale, 0 no effect, 100 complete control), Foxtail, Giant ([19]; 31 g ai/ha)
50: Plant response rating (0 to 100 scale, 0 no effect, 100 complete control), Blackgrass ([4]; 125 g ai/ha) | Plant response rating (0 to 100 scale, 0 no effect, 100 complete control), Ragweed ([9]; 125 g ai/ha) | Plant response rating, Galium ([12]; 16 g ai/ha) | Plant response rating, Velvetleaf ([13]; 16 g ai/ha)
0: Plant response rating (0 to 100 scale, 0 no effect, 100 complete control), Wheat ([1]; 31 g ai/ha) | Plant response rating (0 to 100 scale, 0 no effect, 100 complete control), Wheat ([1]; 125 g ai/ha) | Plant response rating (0 to 100 scale, 0 no effect, 100 complete control), Corn (corn (Zea mays) [5]; 31 g ai/ha) | Plant response rating (0 to 100 scale, 0 no effect, 100 complete control), Ryegrass, Italian ([8]; 31 g ai/ha) | Plant response rating, Johnsongrass ([11]; 16 g ai/ha) | Plant response rating, Johnsongrass ([11]; 31 g ai/ha) | Plant response rating, Ryegrass, Italian ([16]; 16 g ai/ha) | Plant response rating, Ryegrass, Italian ([16]; 31 g ai/ha) | Plant response rating, Ryegrass, Italian ([16]; 62 g ai/ha) | Plant response rating, Ryegrass, Italian ([16]; 125 g ai/ha) | Plant response rating (0 to 100 scale, 0 no effect, 100 complete control), Ryegrass, Italian ([21]; 31 g ai/ha)
15: Plant response rating, Crabgrass, Large ([17]; 31 g ai/ha)
30: Plant response rating (0 to 100 scale, 0 no effect, 100 complete control), Barnyardgrass ([7]; 125 g ai/ha) | Plant response rating (0 to 100 scale, 0 no effect, 100 complete control), Ragweed ([9]; 31 g ai/ha)
75: Plant response rating, Soybean (soybean (Glycine max); 125 g ai/ha) | Plant response rating, Velvetleaf ([13]; 62 g ai/ha) | Plant response rating, Velvetleaf ([13]; 125 g ai/ha) | Plant response rating, Waterhemp ([15]; 31 g ai/ha)
70: Plant response rating, Waterhemp ([15]; 62 g ai/ha) | Plant response rating, Waterhemp ([15]; 125 g ai/ha) | Plant response rating (0 to 100 scale, 0 no effect, 100 complete control), Barnyardgrass ([20]; 125 g ai/ha) | Plant response rating (0 to 100 scale, 0 no effect, 100 complete control), Ragweed ([22]; 31 g ai/ha)
